Results taken from US20220409617A1, “Drug Formulations and Methods of Treatment for Metabolic Disorders” (The Regents of the University of California, priority 2019, published 2022).

Tested on: mouse embryonic fibroblasts (MEFs)
Assay: Ceramide-induced (C16:0 CER, C2-ceramide) mitochondrial fragmentation
Format: cell-based
Conditions: MEFs, 893 5 μM
Protocol: 3T3-L1 cells were maintained in DMEM with 10% FBS and 1% penicillin-streptomycin until induced to differentiate. 3T3-L1 pre-adipocytes were differentiated as described in (M. P. Valley, et al., Anal. Biochem. 505: 43-50, 2016, the disclosure of which is incorporated herein by reference) with slight modifications. Briefly, pre-adipocytes were grown to confluence. After 2 d, cells were induced with maintenance media containing 500 μM IBMX (15879, Sigma-Aldrich, St. Louis, Mo.), 1 μM dexamethasone (D4902, Sigma-Aldrich), 5 μg/mL bovine insulin (10516, Sigma-Aldrich), and 5 μM troglitazone (50-115-0786, ApexBio). Media was changed every 2-3 d for 7 d. On day 7 post-induction, media was changed to maintenance media+5 μg/mL bovine insulin. On day 9 post-induction, media was changed to maintenance media. Mature adipocytes were used 12-14 d post-induction for all experiments. LSL-KrasG12D mouse embryonic fibroblasts (MEFs) with and without Cre-mediated deletion of the STOP cassette were obtained from David Tuveson (Cold Spring Harbor Laboratory, Cold Spring Harbor N.Y., USA) in 2000. p53^flox/flox MEFs were derived in house (2015) from C57BL/6 mice using standard techniques and immortalized by transient expression of Cre recombinase and deletion of p53. MEFs were cultured and maintained in DMEM with 10% FBS and 1% penicillin-streptomycin. A549 cells were cultured in DMEM with 10% FBS, 1% penicillin-streptomycin and 1% sodium pyruvate. Stock solution of palmitic acid (ACROS Organics, cat # AC129702500) was prepared at 100 mM in ethanol. Palmitate (250 μM) was conjugated to 1% (w/v) fatty-acid free bovine serum albumin (Sigma, A8806) in DMEM at 37° C. for 20 min. For all immunofluorescence assays, 8,000 MEFs were seeded into 8-chamber slides (Cellvis, cat # C8-1.5H-N) 12-16 h before treatment. Cells were pre-treated with sphingolipid-like compound 893 (5 μM in water), myriocin (10 μM in methanol), fumonisin-B1 (30 μM in DMSO), or celastrol (500 nM in DMSO) for 3 h followed by a 3 h treatment with BSA-conjugated palmitate mixture or BSA alone. Where cells were treated with C2-ceramide (50 μM in DMSO) or C16:0 ceramide (100 μM in ethanol) for 3 h, cells were pre-treated with sphingolipid-like compound 893 for 1-3 h as indicated, mdivi-1 (50 μM in DMSO) for 1 h or 24 h, M1 (5 μM in DMSO) for 24 h, mdivi-1 and M1 together for 24 h, leflunomide (50 μM in methanol) for 1 h or 24 h, or with P110 (1 μM in water) for 1 h or 12 h. LSL or KRAS^G12D MEFs were treated with sphingolipid-like compound 893 (5 μM) for 6 h prior to fixation.
MEFs were washed twice with PBS and fixed with 4% paraformaldehyde for 10 min at RT. Cells were permeabilized with 0.3% Triton X-100 in blocking buffer containing 10% fetal bovine serum for 20 min at 37° C. followed by overnight incubation with mouse anti-citrate synthase (sc-390693, Santa Cruz Biotechnology; dilution, 1:200) or rabbit-anti-DRP1 at 1:100 (#8570, Cell Signaling Technology) at 4° C. Cells were then washed twice with PBS and incubated with AlexaFluor 488 goat anti-mouse (A28175, Invitrogen) or AlexaFluor 594 donkey anti-rabbit (A32754, Invitrogen) secondary antibodies at RT followed by 5 min incubation with 1 μg/ml DAPI and 2 washes in PBS. For NADH autofluorescence studies, mice were gavaged with vehicle or 120 mg/kg sphingolipid-like compound 893 at ZT8.5 (4-10.5 h before sacrifice between ZT12.5 and ZT18). Post sacrifice, livers were excised, washed 3× with PBS, placed in DMEM supplemented with 10% FBS and 1% penicillin-streptomycin, and immediately imaged. NADH/NADPH autofluorescence was detected with 740 nm excitation and 450±50 nm detectors using a Mai Tai two-photon laser. Fluorescence microscopy was performed on a Zeiss LSM 780 confocal using a 63× oil objective with a […] numerical aperture (NA) or using a Nikon TE2000-S inverted epifluorescence microscope with a 100× oil objective (1.3 NA) and a Photometrics CoolSNAP ES2 monochrome CCD camera. […]

CCCCCCCCc1ccc([C@H]2CCN[C@@H]2CO)cc1.Cl [compound 893]
Pre-treatment time after which the compound was effective against C16:0 ceramide-induced fragmentation: 1 h | Protection from ceramide-induced mitochondrial fragmentation (C16:0 CER 100 μM or C2-ceramide 50 μM 3 h, mdivi-1 50 μM, M1 5 μM, leflunomide 50 μM, P110 1 μM): blocked ceramide-induced mitochondrial fragmentation
